{
  "source": "patent US20250304952A1",
  "about": "“DNA ELEMENT RESPONSIVE TO EXTRACHROMOSOMAL DNA IN CANCER CELLS” (The Board of Trustees of the Leland Stanford Junior …, priority 2021, published 2025)",
  "key": {"[1]": {"test_system": "MYC mRNA in COLO320-DM cells", "assay": "MYC RNA measured by RT-qPCR in COLO320-DM", "format": "cell-based, human", "settings": "500 nM, 6 hours", "method": "Cells were then treated for 6 hours with 500 nM JQ1 in DMSO unless otherwise indicated (Sigma-Aldrich SML1524) or an equivalent volume of DMSO.\nRNA was extracted using RNeasy Plus mini Kit (QIAGEN 74136). Purified RNA was quantified by Nanodrop (Thermo Fisher). For RT-qPCR, 50 ng of RNA, 1× Brilliant II qRT-PCR mastermix with 1 μL RT/RNase block (Agilent 600825), and 200 nM forward and reverse primer were used. Each Ct value was measured using Lightcycler 480 (Roche) and each mean dCt was averaged from duplicate qRT-PCR reaction and performed in biological triplicate. Relative MYC RNA level (RT-qPCR primers MYC_exon3_fw and MYC_exon3_rv) was calculated by ddCt method compared to 18S and GAPDH controls (RT-qPCR primers GAPDH_fw, GAPDH_rv, 18S_fw, 18S_rv). P values were calculated using a Student's t-test by comparing the relative fold change of biological triplicates.\nApproximately 0.6×10^6 COLO320-DM or COLO-320-HSR cells were plated in 6 well plates and cultured under standard conditions for 24 hours. Cells were then treated for 6 hours with one of the following: 500 nM JQ1 (Sigma-Aldrich SML1524), 500 nM MS645 (Sigma Aldrich SML2549), 1 μM THZ-1 (Selleck chemicals S7549), 20 μM SGC-SCP30 (Selleck chemicals S7256), 10 μM OICR-9429 (Selleck chemicals S7833), 50 μM MI-3 (Selleck chemicals S7619), 2 μM trichostatin A (Selleck chemicals S1045), or DMSO. […]"}, "ecDNA hubs in COLO320-DM": {"test_system": "ecDNA hubs in COLO320-DM", "assay": "ecDNA clustering by interphase DNA FISH, autocorrelation g(r)", "format": "cell-based, human", "settings": "6 hours", "excerpt": "The Oligopaint FISH probe libraries were constructed as described previously 51 Each oligo consists of a 40 nucleotide (nt) homology to the hg19 genome assemble designed from the algorithm developed from the laboratory of Dr. Ting Wu (https://oligopaints.hms.harvard.edu/). Each library subpool consists of a unique sets of primer pairs for orthogonal PCR amplification and a 20 nt T7 promoter sequence for in vitro transcription and a 20 nt region for reverse transcription. Individual Oligopaint probes were generated by PCR amplification, in vitro transcription, and reverse transcription, in which ssDNA oligos conjugated with ATTO488 and ATTO647 fluorophores were introduced during the reverse transcription step. The Oligopaint covered genomic regions (hg19) used in this study are as follows: chr8: 116967673-118566852 (hg19_COLO_nonecDNA_1.5Mbp), chr8: 127435083-129017969 (hg19_COLO_ecDNA_1.5Mbp), chr8: 128729248-128831223 (hg19_PC3_ecDNA1_100 kb). A ssDNA oligo pool was ordered and synthesized from Twist Bioscience (San Francisco, CA). 15 mm #1.5 round glass coverslips (Electron Microscopy Sciences) were pre-rinsed with anhydrous ethanol for 5 min, air dried, and coated with L-poly lysine solution (100 μg/mL) for at least 2 hours. Fully dissociated ColoDM320 or PC3 cells were seeded onto the coverslips and recovered for at least 6 hours before experiments. Cells were fixed with 4% (v/v) methanol free paraformaldehyde diluted in 1×PBS at room temperature for 10 min. Then cells were washed 2× with 1×PBS and permeabilized in 0.5% Triton-X100 in 1×PBS for 30 min. After 2× wash in 1×PBS, cells were treated with 0.1M HCl for 5 min, followed by 3× washes with 2×SSC and 30 min incubation in 2×SSC+0.1% Tween20 (2×SSCT)+50% (v/v) formamide (EMD Millipore, cat #S4117). […]\nTo analyze the clustering of ecDNAs, we applied the autocorrelation function as described previously58 in Matlab (2019). g(r) estimates the probability of detecting another ecDNA signal at increasing distances from the viewpoint of an index ecDNA signal and is equal to 1 for a uniform, random distribution. Specifically, the pair auto-correlation function g(r^→) was calculated by the fast Fourier transform (FFT) method described by the equations below.\nN(r^→) is the auto-correlation of a mask matrix that has the value of 1 inside the nucleus used for normalization. […] Autocorrelation functions were calculated first by converting the Cartesian coordinates to polar coordinates by Matlab cart2pol( ) function, binning by radius and by averaging within the assigned bins. […]"}},
  "data": [
    {"compound": "Cc1sc2c(c1C)C(c1ccc(Cl)cc1)=N[C@@H](CC(=O)NCCCCCCCCCCNC(=O)C[C@@H]1N=C(c3ccc(Cl)cc3)c3c(sc(C)c3C)-n3c(C)nnc31)c1nnc(C)n1-2", "note": "[MS645]", "values": [
      {"measurement": "MYC mRNA level", "setting": "[1]", "value": "reduced ecDNA transcription and clustering similar to JQ1"},
      {"measurement": "ecDNA hub clustering (interphase DNA FISH, autocorrelation g(r))", "setting": "ecDNA hubs in COLO320-DM; 500 nM", "value": "reduced ecDNA transcription and clustering similar to JQ1"}
    ]},
    {"compound": "alpha-amanitin", "values": [
      {"measurement": "ecDNA hub clustering (interphase DNA FISH, autocorrelation g(r))", "setting": "ecDNA hubs in COLO320-DM; 100 μg/mL alpha-amanitin", "value": "did not affect ecDNA hubs"}
    ]},
    {"compound": "OCCCCCCO", "note": "[1,6-hexanediol]", "values": [
      {"measurement": "ecDNA hub clustering (interphase DNA FISH, autocorrelation g(r))", "setting": "ecDNA hubs in COLO320-DM; 1% 1,6-hexanediol", "value": "did not affect ecDNA hubs"}
    ]}
  ]
}
